Like-named read-outs stand apart in the source and are kept apart here.
Target: T1, pSTAT6 (Homo sapiens, UniProt P42226)
T1 sequence (P42226 1-847): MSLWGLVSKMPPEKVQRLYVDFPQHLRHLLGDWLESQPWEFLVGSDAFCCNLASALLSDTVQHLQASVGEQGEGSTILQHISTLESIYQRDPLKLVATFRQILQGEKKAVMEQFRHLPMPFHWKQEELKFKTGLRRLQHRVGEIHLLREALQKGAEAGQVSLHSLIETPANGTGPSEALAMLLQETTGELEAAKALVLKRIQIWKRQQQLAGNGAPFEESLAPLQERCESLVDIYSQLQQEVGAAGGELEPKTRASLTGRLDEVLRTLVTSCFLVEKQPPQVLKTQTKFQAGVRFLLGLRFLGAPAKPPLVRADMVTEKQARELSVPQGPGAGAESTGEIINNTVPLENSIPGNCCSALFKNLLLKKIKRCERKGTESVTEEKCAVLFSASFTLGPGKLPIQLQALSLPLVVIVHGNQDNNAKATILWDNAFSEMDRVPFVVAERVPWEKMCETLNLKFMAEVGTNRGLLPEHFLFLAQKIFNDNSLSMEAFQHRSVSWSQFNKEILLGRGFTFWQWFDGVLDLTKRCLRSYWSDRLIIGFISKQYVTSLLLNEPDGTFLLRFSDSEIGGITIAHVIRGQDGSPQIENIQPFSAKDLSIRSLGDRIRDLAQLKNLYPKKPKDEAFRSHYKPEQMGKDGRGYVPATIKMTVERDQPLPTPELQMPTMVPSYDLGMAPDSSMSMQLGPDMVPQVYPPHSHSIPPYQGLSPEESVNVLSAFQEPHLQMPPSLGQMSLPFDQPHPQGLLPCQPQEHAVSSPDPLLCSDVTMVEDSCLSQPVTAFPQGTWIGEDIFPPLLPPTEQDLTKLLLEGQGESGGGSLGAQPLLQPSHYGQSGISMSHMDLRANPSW
Experiment: MSD-pSTAT-PBMC Assay (pSTAT6, IL-4 stimulated)
Format: cell-based
From the text: Cryopreserved Peripheral Blood Mononuclear Cells (PBMC) are from AllCells. Recombinant Human IL-4 and IL-6 are from Peprotech. Mouse monoclonal anti-STAT3 antibody, rabbit monoclonal anti-pY705-STAT3 antibody, rabbit monoclonal Anti-pY641-STAT6 antibody, and lysis buffer are from Cell Signaling Technology (CST). Mouse monoclonal anti-STAT6 antibody is from BioLegend. Assay plates, blocker, and anti-rabbit secondary antibody are from Meso Scale Discovery (MSD).
Cryopreserved PBMCs were thawed out and allowed to recover overnight in IMDM+10% heat-inactivated FBS prior to plating 50,000 (STAT3) or 25,000 (STAT6) cells per well in 96-well U-bottom tissue culture plates. Cells were treated with compound for 3 hrs, then stimulated with 10 ng/mL IL-6 (STAT3) or 1 ng/mL IL-4 (STAT6) for 10 min. Cells were then spun down and washed with ice-cold PBS prior to lysing the cell pellet with 1× lysis buffer (CST) with 1× HALT protease and phosphatase inhibitor cocktail (Thermo). Lysates were transferred to and incubated overnight at 4° C. with shaking in QuickPlex 96-well high bind assay plates (MSD) pre-coated overnight with 30 μL per well of […] mouse monoclonal anti-STAT3 antibody (STAT3) or 2 μg/mL mouse monoclonal anti-STAT6 antibody (STAT6) in 1× PBS, and pre-blocked for 1 hour with 3% Blocker-A (MSD). Captured protein in the assay plates were then washed and probed with 25 μL per well of […] rabbit monoclonal anti-pY705-STAT3 antibody (STAT3) or […] rabbit monoclonal Anti-pY641-STAT6 antibody (STAT6) in 1% Blocker-A for 1 hour at room temperature with shaking, then washed and probed with 25 ul per well of 1 ug/ml Sulfo-TAG Labeled Goat Anti-Rabbit Antibody (MSD) in 1% Blocker-A for 1 hour at room temperature with shaking. Assay plates were then washed and 150 μL of 1× Read Buffer-T (MSD) was added to each well prior to reading on an SQ120 MSD Plate Reader. Assay signal from each sample was subtracted by the signal from unstimulated control wells and normalized to DMSO control wells. IC50 values were calculated using Graph Pad Prism Dose-Response Nonlinear Regression with variable slope. For both pSTAT3 and pSTAT6 A=≤100 nM; B=>100-1000 nM; C=>1000-3000 nM; and D=>3 μM.

[1] = read-out: pSTAT6 IC50, compound 3 hrs, then 1 ng/mL IL-4 10 min, pY641-STAT6
[2] = compound 3 hrs, then 1 ng/mL IL-4 10 min, pY641-STAT6, read-out: pSTAT6 IC50

Structure (SMILES) | IC50 [2] [µM] | IC50 [1] [µM]
CCCC(=O)SCCOP(=O)(OCCSC(=O)CCC)C(F)(F)c1ccc2sc(C(=O)N[C@H]3CCCC[C@H]4CC[C@@H](C(=O)N5C[C@@H](c6ccn(C7CCN(c8ccc9c(c8)[nH]c(=O)n9C8CCC(=O)NC8=O)CC7)c(=O)c6)CC56CC6)N4C3=O)cc2c1 (stereo partly drawn) [Compound 25, S,S((((2-(((3S,6S,10aS)-3-((6R)-6-(1-(1-(1-(2,6-dioxopiperidin-3-yl)-2-oxo-2,3-dihydro-1H-benzo[d]imidazol-5-yl)piperidin-4-yl)-2-oxo-1,2-dihydropyridin-4-yl)-4-azaspiro[2.4]heptane-4-carbonyl)-5-oxodecahydropyrrolo[1,2-a]azocin-6-yl)carbamoyl)benzo[b]thiophen-5-yl)difluoromethyl)phosphoryl)bis(oxy))bis(ethane-2,1-diyl)) dibutanethioate] | – | 0.1 to 1
CCCC(=O)SCCOP(=O)(OCCSC(=O)CCC)C(F)(F)c1ccc2sc(C(=O)NC3CCCCC4CCC(C(=O)N5CC(C#N)C(c6cccc(N7CCN(c8ccc9c(c8)[nH]c(=O)n9C8CCC(=O)NC8=O)CC7)c6)C5)N4C3=O)cc2c1 [Compound 23, S,S(((((2-(((3S,6S,10aS)-3-((rel-3S,4R)-3-cyano-4-(3-(4-(1-(2,6-dioxopiperidin-3-yl)-2-oxo-2,3-dihydro-1H-benzo[d]imidazol-5-yl)piperazin-1-yl)phenyl)pyrrolidine-1-carbonyl)-5-oxodecahydropyrrolo[1,2-a]azocin-6-yl)carbamoyl)benzo[b]thiophen-5-yl)difluoromethyl)phosphoryl)bis(oxy))bis(ethane-2,1-diyl)) dibutanethioate] | – | < 0.1
CCCC(=O)SCCOP(=O)(OCCSC(=O)CCC)C(F)(F)c1ccc2sc(C(=O)NC3CCCCC4CCC(C(=O)N5CC(C#N)C(c6cccc(OCCCCOc7ccc(C8CCC(=O)NC8=O)cc7)c6)C5)N4C3=O)cc2c1 [Compound 4, trans-S,S(((((2-(((3S,6S,10aS)-3-(3-cyano-4-(3-(4-(4-(2,6-dioxopiperidin-3-yl)phenoxy)butoxy)phenyl)pyrrolidine-1-carbonyl)-5-oxodecahydropyrrolo[1,2-a]azocin-6-yl)carbamoyl)benzo[b]thiophen-5-yl)difluoromethyl)phosphoryl)bis(oxy))bis(ethane-2,1-diyl)) dibutanethioate] | < 0.1 | –
CCCC(=O)SCCOP(=O)(OCCSC(=O)CCC)C(F)(F)c1ccc2sc(C(=O)NC3CCCCC4CCC(C(=O)N5CC(C#N)C(c6cccc(OCCOCCOc7cccc8c7CN(C7CCC(=O)NC7=O)C8=O)c6)C5)N4C3=O)cc2c1 [Compound 15, S,S(((((2-(((3S,6S,10aS)-3-((rel-3S,4R)-3-cyano-4-(3-(2-(2-((2-(2,6-dioxopiperidin-3-yl)-1-oxoisoindolin-4-yl)oxy)ethoxy)ethoxy)phenyl)pyrrolidine-1-carbonyl)-5-oxodecahydropyrrolo[1,2-a]azocin-6-yl)carbamoyl)benzo[b]thiophen-5-yl)difluoromethyl)phosphoryl)bis(oxy))bis(ethane-2,1-diyl)) dibutanethioate] | < 0.1 | –

Further lines, with some results ahead:

IC50 [2] [µM] | Structure (SMILES) | IC50 [1] [µM]
< 0.1 | CCCC(=O)SCCOP(=O)(OCCSC(=O)CCC)C(F)(F)c1ccc2sc(C(=O)N[C@H]3CCCC[C@H]4CC[C@@H](C(=O)N5C[C@@H](c6ccn(CCCCCOc7ccc(C8CCC(=O)NC8=O)cc7)c(=O)c6)CC56CC6)N4C3=O)cc2c1 (stereo partly drawn) [Compound 18, S,S(((((2-(((3S,6S,10aS)-3-((6R)-6-(1-(5-(4-(2,6-dioxopiperidin-3-yl)phenoxy)pentyl)-2-oxo-1,2-dihydropyridin-4-yl)-4-azaspiro[2.4]heptane-4-carbonyl)-5-oxodecahydropyrrolo[1,2-a]azocin-6-yl)carbamoyl)benzo[b]thiophen-5-yl)difluoromethyl)phosphoryl)bis(oxy))bis(ethane-2,1-diyl)) dibutanethioate] | –
0.1 to 1 | CCCC(=O)SCCOP(=O)(OCCSC(=O)CCC)C(F)(F)c1ccc2sc(C(=O)N[C@H]3CCCC[C@H]4CC[C@@H](C(=O)N5C[C@@H](C#N)[C@H](c6cccc(OCCCCCC#Cc7cccc8c7CN(C7CCC(=O)NC7=O)C8=O)c6)C5)N4C3=O)cc2c1 (relative stereo) [Compound 14, S,S(((((2-(((3S,6S,10aS)-3-((rel-3S,4R)-3-cyano-4-(3-((7-(2-(2,6-dioxopiperidin-3-yl)-1-oxoisoindolin-4-yl)hept-6-yn-1-yl)oxy)phenyl)pyrrolidine-1-carbonyl)-5-oxodecahydropyrrolo[1,2-a]azocin-6-yl)carbamoyl)benzo[b]thiophen-5-yl)difluoromethyl)phosphoryl)bis(oxy))bis(ethane-2,1-diyl)) dibutanethioate] | –
0.1 to 1 | CCCC(=O)SCCOP(=O)(OCCSC(=O)CCC)C(F)(F)c1ccc2sc(C(=O)N[C@H]3CCCC[C@H]4CC[C@@H](C(=O)N5C[C@@H](c6ccn(CCOCCOCCOc7cccc8c7CN(C7CCC(=O)NC7=O)C8=O)c(=O)c6)CC56CC6)N4C3=O)cc2c1 (stereo partly drawn) [Compound 26, S,S((((2-(((3S,6S,10aS)-3-((6R)-6-(1-(2-(2-(2-((2-(2,6-dioxopiperidin-3-yl)-1-oxoisoindolin-4-yl)oxy)ethoxy)ethoxy)ethyl)-2-oxo-1,2-dihydropyridin-4-yl)-4-azaspiro[2.4]heptane-4-carbonyl)-5-oxodecahydropyrrolo[1,2-a]azocin-6-yl)carbamoyl)benzo[b]thiophen-5-yl)difluoromethyl)phosphoryl)bis(oxy))bis(ethane-2,1-diyl)) dibutanethioate] | –
< 0.1 | CCCC(=O)SCCOP(=O)(OCCSC(=O)CCC)C(F)(F)c1ccc2sc(C(=O)N[C@H]3CCCC[C@H]4CC[C@@H](C(=O)N5C[C@@H](c6ccn(CCCCCCC#Cc7cccc8c7CN(C7CCC(=O)NC7=O)C8=O)c(=O)c6)CC56CC6)N4C3=O)cc2c1 (stereo partly drawn) [Compound 6, S,S((((2-(((3S,6S,10aS)-3-((6R)-6-(1-(8-(2-(2,6-dioxopiperidin-3-yl)-1-oxoisoindolin-4-yl)oct-7-yn-1-yl)-2-oxo-1,2-dihydropyridin-4-yl)-4-azaspiro[2.4]heptane-4-carbonyl)-5-oxodecahydropyrrolo[1,2-a]azocin-6-yl)carbamoyl)benzo[b]thiophen-5-yl)difluoromethyl)phosphoryl)bis(oxy))bis(ethane-2,1-diyl)) dibutanethioate] | –
